Where two headings read alike, the source gives them in different places. Ends that are not written are not given here.
Experiments:
platelets = type: cell-based, human; conditions: washed platelets, α-thrombin 1 nM
Method: Fresh whole blood was collected and mixed with 0.013 M sodium citrate and platelet-rich plasma was prepared according to the method of Meloni et al., J. Biol. Chem. 266, 6786, 1991. Washed platelets were prepared by gel filtration over Sepharose 2B columns in Hepes-Tyrode's buffer (0.137 M NaCl, 3 mM KCl, 0.4 mM Na H2 PO4, 12 mM NaHCO3, 1 mM MgCl2, 14.7 mM Hepes containing 20 mM glucose and 0.2% bovine serum albumin, pH 7.35). Platelets for aggregation and secretion studies were incubated according to the method of Schmaier et al., Blood 56, 1013, 1980 with 5-[^14 C]hydroxytryptamine for 30 min at 37° C. The washed platelets (2×10^8 /ml, final concentration radiolabeled with 5-[^14 C]hydroxytryptamine) were added to a cuvette of an aggregometer (Chronolog Corp., Havertown, Pa.), standardized using the protocol of Meloni et al., supra. After the addition of ZnCl2, final concentration 50 μM, purified HK (1 μM) or various concentrations of the peptides (0.1 to 3 mM) or buffer alone was added to the cuvette. Once the baseline stabilized, α-thrombin [0.125 U/ml (1 nM) final concentration] was then added to initiate platelet activation. Stirred platelets were allowed to incubate with o-thrombin and additions for 1 min. In other experiments, platelets were stimulated with TRAP (0.625 to 2.5 μM), ADP (1-5 μM)(Sigma), collagen (1.25 μg/ml) (Horm, Munich, Germany), or U-46619 (1 μM)(Calbiochem Behring, San Diego, Calif.). Additional experiments were performed with washed platelets stimulated with γ-thrombin (1 nM) in the presence of human fibrinogen (100 mg/dl). Both γ-thrombin and human fibrinogen were purchased from Enzyme Research Laboratories, South Bend, Ind. At the conclusion of the incubation, the entire platelet sample was centrifuged at 10,900 xg (Model E, Beckman Instruments, Palo Alto, Calif.) over a 0.135 mM formaldehyde, 5 mM EDTA solution (1 part of formaldehyde-EDTA to 4 parts of platelet suspension) and stored on ice until an aliquot of the supernatant was assayed for 5-[^14 C]hydroxytryptamine secretion. Percent secretion was determined by the ratio of the loss of 5-[^14 C]hydroxytryptamine in the supernatant of the agonist-treated specimen to the loss of 5-[^14 C]hydroxytryptamine in the supernatant of the platelet lysate after the value of the control supernatant (i.e., the level of 5-[^14 C]hydroxytryptamine in a unstimulated sample) was subtracted from both.

washed platelets = test: 125I-α-thrombin binding to platelets; set-up: species or system human; conditions: peptide 1 mM
Method: Gel filtered platelets were placed into polypropylene tubes and diluted with Hepes-Tyrode's buffer, containing 2 mM CaCl2 and 50 μM ZnCl2 and additions, to a final concentration of 2×10^8 platelets/ml. The reaction was started by the addition of 1 nM ^125 I-α-thrombin, which was prepared by using the iodogen technique as reported by Meloni et al., J. Biol. Chem. 266, 6786 (1991). Incubations were performed at 37° C. for specified times with various additions. After incubation, 50 μl aliquots were removed in triplicate for each experimental point and placed in polypropylene microcentrifuge tubes with an extended tip containing 200 μl of an oil mixture which consisted of 1 part Apiezon A oil to 9 parts of n-butylphthalate (Gustafson et al., J. Clin. Invest. 78, 810 (1986)), and centrifuged at room temperature for 2 min at 10,900× g in a microcentrifuge. (Model E, Beckman Instruments, Palo Alto, Calif.) The supernatant was removed and the tips amputated for placement in the gamma counter. The radioactivity present in the cell pellet was determined with an LKB Rack Gamma Counter (LKB Instruments, Inc., Gaithersburg, Md.). Nonspecific binding was measured in the presence of a 100-fold molar excess of α-thrombin.

thrombin receptor = target: T1, thrombin receptor (Homo sapiens, UniProt P25116); test: flow cytometry of thrombin receptor epitopes (SPAN12, ATAP138) on α-thrombin activated platelets; type: cell-based; conditions: peptide 1 nM (so in the source), α-thrombin 1 nM
T1 construct: endogenous in cells; host or cells: washed platelets from fresh blood
T1 sequence (P25116 22-425): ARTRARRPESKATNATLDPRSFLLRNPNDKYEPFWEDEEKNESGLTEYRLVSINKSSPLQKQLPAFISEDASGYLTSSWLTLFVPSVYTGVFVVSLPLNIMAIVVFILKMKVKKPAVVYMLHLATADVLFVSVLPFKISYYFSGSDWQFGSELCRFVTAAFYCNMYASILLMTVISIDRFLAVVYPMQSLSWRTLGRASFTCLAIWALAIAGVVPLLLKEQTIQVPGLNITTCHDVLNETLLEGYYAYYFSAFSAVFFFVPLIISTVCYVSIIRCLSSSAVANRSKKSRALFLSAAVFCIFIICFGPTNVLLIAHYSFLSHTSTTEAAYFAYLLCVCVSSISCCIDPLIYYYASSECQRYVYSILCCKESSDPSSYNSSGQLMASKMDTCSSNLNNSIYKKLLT
Method: Flow cytometry studies were performed to determine whether BK analogs prevent α-thrombin from eliminating an epitope on the thrombin receptor which is lost following α-thrombin cleavage- of the receptor. SPAN12 is an antibody to the thrombin receptor on platelets, which is specific for such an epitope. Studies were also performed to determine the effect of BK analogs on an epitope recognized by monoclonal antibody ATAP 138. The antibody is directed to an epitope on the thrombin receptor which is preserved after α-thrombin cleaves the receptor (FIGS. 7A-7D).
Monoclonal antibody SPAN12 was reared to the 12 amino acids, Asn-Ala-Thr-Leu-Asp-Pro-Arg-Ser-Phe-Leu-Leu-Arg (SEQ ID NO:2), that bridge the α-thrombin cleavage site on the thrombin receptor by the methods of Molinot et al., J. Biol. Chem. 270:ln Press, 1995. […]
Mouse IgG and an antibody to the epitope CD62 were used as controls. […] The fluorescence of bound FITC-anti-IgG to platelets was monitored on an Epics-C flow cytometer (Coulter Electronics, Hialeah, Fla.). Light scatter and fluorescence channels were set at logarithmic gain. […] Green fluorescence was observed through a 525 nm band pass filter. The relative fluorescence intensity of at least 15,000 platelets was analyzed in each sample. […]

[1] = observations in rabbits after bolus injection; type: in vivo, New Zealand white rabbits; conditions: single iv bolus
Method: (§1) Clearance studies have been performed in New Zealand white rabbits with BK analog SEQ ID NO:19. White rabbits weighing between 2.0 and 2.5 kg were premedicated according to the method of Michelson et al., J. Mol. Cell Cardiol. 20, 547 (1988) with 10 mg/kg 1 M xylazine and 10 mg/kg 1 M ketamine. After tracheostomy, intubation, and positive pressure ventilation done with room air (Harvard instruments), stage III surgical anesthesia was maintained with 20 mg/ml of intravenous pentobarbital. A carotid artery and a jugular vein were then exposed. A catheter was inserted into the exposed carotid artery for withdrawal of blood samples and monitoring the animal's blood pressure (Gould, Inc., Cardiovascular Products, Oxnard, Calif.). In a similar manner, a catheter was inserted into the exposed jugular vein for administering the anesthetic and BK analog SEQ ID NO:19.
(§2) For the clearance study, a single bolus of BK analog SEQ ID NO:19 was injected. The amount of BK analog SEQ ID NO:19 injected was calculated from the weight of the animal such that the blood volume was 1 mM with peptide. For example: for a 2.5 kg rabbit, 7% of its weight gives an estimated blood volume of 175 ml. Accordingly, 89 mg of BK analog was injected to make the 175 ml plasma sample 1 mM. Depending upon the size of the animal, 75 to 90 mg peptide was injected. Blood samples were collected at 2, 4, 6, 8, 10, 20, 30, 40, 60, 90, and 120 minute intervals after infusion into a 0.013 M sodium citrate anticoagulant solution. Plasma was prepared from each of the blood samples collected over time by centrifugation of the blood samples at 10,00 xg for two minutes. Aliquots of the plasmas were assayed for the presence of the BK analog SEQ ID NO:19 antigen by the ELISA technique using a MARKIT-M [1-5] BK assay from Dainippon Pharmaceutical Co., Ltd., Osaka, Japan.

[2] = rabbit clearance study (plasma antigen by ELISA); type: in vivo, New Zealand white rabbits
Method: as §1, §2

α-thrombin = α-thrombin (Homo sapiens, UniProt P00734); test: α-thrombin cleavage of thrombin receptor peptide NAT12 (HPLC); type: biochemical; conditions: peptide 1 mM, 8 nM α-thrombin
Method: A further study was performed to determine whether BK analogs prevent α-thrombin from cleaving the thrombin receptor reported by Vu et al., Cell 64, 1057 (1991). A peptide, NAT12 (SEQ ID NO:2), which spans amino acids […] of the α-thrombin cleavage site on the thrombin receptor, was used to determine whether the BK analogs described herein blocked α-thrombin cleavage of the cloned receptor.
The cleavage study was performed according to the method of Molino et al., J. Biol. Chem. 270,11168(1995),inwhichNAT12(SEQ ID NO:2) was dissolved in a solution of 0.01 M NaH2 PO4 and 0.15 M NaCl, pH 7.4. […] Following incubation, each mixture was separated by applying the mixture to a Vyadec C-18 HPLC column in 0.1% trifluoroacetic acid and eluting the mixture with a gradient from 0% to 100% of 80% MeCN and 0.1% trifluoroacetic acid. The size of the separated products were confirmed by mass spectrometry.

With “SEQ ID NO:8: BK analog that encompasses all or a portion of the native BK sequence (GFSPFRSSRIG)” the IC50 (platelets; read-out: IC50 AGGREGATION (inhibition of α-thrombin-induced platelet aggregation)) was 850 µM, the IC50 (platelets; read-out: IC50 SECRETION (inhibition of α-thrombin-induced platelet secretion)) was over 2000 µM and the “inhibition of 125I-α-thrombin binding to platelets” value (washed platelets) was “did not block”.
In the case of “SEQ ID NO:4: unrelated peptide having an amino acid content similar to BK analog SEQ ID NO:14 (FNQTQPERGDNNLTR)”, the “alteration of SPAN12 epitope by α-thrombin” value (thrombin receptor) is reported as “did not prevent”.
For “RPPGF [SEQ ID NO:19, Arg-Pro-Pro-Gly-Phe]”, the “bleeding at the surgical sites of cutdowns and intubations” value [1] was “no abnormal bleeding”, the blood pressure [1] was “remained stable” and the platelet count [1] was “remained stable”. The pulse [1] was “remained stable”, the “unfavorable effects following the bolus injection” value [1] was “No unfavorable effects were observed” and the “effect of ligating renal arteries on half-life” value ([2]; Rabbit 2, renal arteries ligated) was “did not lengthen the half-life”. The “half-life of antigen clearance in plasma” value ([2]; single iv bolus) was 6.6 min, the “peak plasma concentration after infusion” value ([2]; single iv bolus, two minutes after infusion) was 0.120 mM and the peak plasma concentration after infusion ([2]; single iv bolus, two of three rabbits, ELISA) was 60 µg/mL. The “cleavage product peak 2, share of non-treated NAT12 peak area” value (α-thrombin) was 26%, the “cleavage product peak 3, share of non-treated NAT12 peak area” value (α-thrombin) was 31% and the “reduction of NAT12 peak 1 area after α-thrombin” value (α-thrombin; one hour 37° C.) was 57%.

Reference: US6143719A, “Bradykinin analogs as selective thrombin inhibitors” (The Regents of the University of Michigan, priority 1996, dated 2000)
